The values below come from PMC11676883, “Coumarins and Hesperetin Inhibit Human Respiratory Syncytial Virus Infection” (International Journal of Molecular Sciences, 2024).

Where “and” joins values, the source holds several entries; their conditions need not be identical. Identical values can stand only once. Entries after “also recorded” stand apart in the source; their conditions may differ. Like-named read-outs stand apart in the source and are kept apart here.

Data set [1] is described as follows: MTT cytotoxicity assay on A549 cells. The note with it: human. (In general: Formazan colour is commonly taken as a measure of viable cells.)
The test system of data set [2] is RSV-luc (rA2-Rluc). The data set can be described thus: Inhibition assay of β-cyclodextrin-encapsulated compounds on differentiated HBE cultures inoculated with RSV-luc. The note with it: for decrease in RSV infection: encapsulated with β-cyclodextrin, 48 h; for decrease in RSV infection / mean difference vs positive control: RSV-luc; for mean difference vs positive control / inhibition compared with the PC (result in words): encapsulated.

The subject of data set [3] is RSV-luc (rA2-Rluc). The data set can be described thus: microbe, parasite or virus in culture. The note with it: human respiratory syncytial virus, A549, read-out: IC50 (concentration inhibiting 50% viral replication).
Data set [4] has as its system rgRSV (recombinant green fluorescent protein-expressing RSV, strain A2). The data set can be described thus: Inhibition test on rgRSV-infected HEp-2 cells (GFP foci). The note with it: 24-72 h, coumarin, esculin, umbelliferone 300 µM, esculetin 150 µM, 4-methyl 150 µM.
Data set [5] concerns RSV-luc (rA2-Rluc). The note with it: A549 cells; for inhibition of RSV-luc (result in words): not encapsulated, luciferase RLU; for Selectivity Index (SI): from CC50 and IC50.
Data set [6] has as its system A549 cells. The note with it: human, 48 h.
Data set [7] deals with A549 cells. The data set can be described thus: MTT cytotoxicity assay on A549 cells. The note with it: A549 cells.
The test system of the next data set is influenza virus. The arrangement: method as in PMID 20092255. The note with it: plaque reduction assay, cited from earlier work.
The mark [8] stands for this setting: MTT, 24 h, modified umbelliferones.

As to `O=c1ccc2cc(O)c(O)cc2o1` [Esculetin, 6,7-Dihydroxycoumarin], the CC50 in data set [1] worked out at 1410 µM. In addition, in the data set on RSV-luc (rA2-Rluc) [2], the “decrease in RSV infection” value was ~15% and the “mean difference vs positive control” value is on record as 12,600,000 RLU. Further, the IC50 with RSV-luc (rA2-Rluc) [3] was 180 µM. Also, the “inhibition of rgRSV (result in words)” value in data set [4] is “inhibited rgRSV effectively”. Besides, in the data set with RSV-luc (rA2-Rluc) [5] (RSV-luc), the “viral inhibition at 24 h” value is listed as “approximately 50%” and the “viral inhibition at 48 h” value is 70%. In the data set on RSV-luc (rA2-Rluc) [5], the “inhibition of RSV-luc (result in words)” value was “reduced luciferase gene expression” and the “Selectivity Index (SI)” value was determined as 7.56. Also, the “concentration at which the cells were 80% viable” value in the data set on A549 cells [6] amounted to 125 µM.

Regarding `CC(=O)Oc1ccc2ccc(=O)oc2c1` [acetylated umbelliferone, 7-Acetoxycoumarin], in the data set with A549 cells [7] (setting [8]), the “concentration that resulted in >80% viable cells” value amounted to 20 µM and the “cytotoxicity compared (result in words)” value is reported as “higher cytotoxicity than prenylated umbelliferone”.

As to “5,7-Dihydroxycoumarin-4-methylcoumarin [4-methyl esculetin]”, in the data set with A549 cells [7] (MTT, 48 h), the “concentration at which the cells were 80% viable” value is 75 µM. For the same molecule, in the data set with A549 cells [7] (read-out: CC50 (concentration causing 50% cytotoxicity), MTT, extrapolated from CC90 and CC100), the CC50 was 1040 µM. Moreover, in the data set with RSV-luc (rA2-Rluc) [2], the “inhibition compared with the PC (result in words)” value (“inhibition compared with the PC” for short) is on record as “no significant inhibition”. For the same molecule, in data set [4], the “inhibition of rgRSV (result in words)” value was “inhibited rgRSV effectively”. For the same molecule, in the data set with RSV-luc (rA2-Rluc) [5] (RSV-luc), the “viral inhibition at 24 h” value is reported as “about 40%” and the “viral inhibition at 48 h” value is “inhibition doubling”. Moreover, the “inhibition of RSV-luc (result in words)” value in the data set with RSV-luc (rA2-Rluc) [5] is “reduced luciferase gene expression”. For the same molecule, the IC50 in the data set with RSV-luc (rA2-Rluc) [5] (read-out: IC50 (concentration inhibiting 50% viral replication), RSV-luc) was 70 µM.

Take `O=c1ccc2ccc3occc3c2o1` [angelicin]: in the data set with influenza virus (20 nM), the “reduction of influenza virus infection” value was 50%. Moreover, in the data set with influenza virus (100 nM), the “reduction of influenza virus infection (result in words)” value was “completely”.

Consider `COc1ccc(C2CC(=O)c3c(O)cc(O)cc3O2)cc1O` (stereo not drawn) [Hesperetin, 3′,5,7-Trihydroxy-4′-methoxyflavanone], for which the CC50 in data set [1] was 2670 µM. Also, in the data set with RSV-luc (rA2-Rluc) [2], the “inhibition compared with the PC” value is on record as “no significant inhibition”; the “decrease in RSV infection” value is ~7% and 7.5%. In addition, the IC50 with RSV-luc (rA2-Rluc) [3] stood at 360 µM. For the same molecule, in the data set on RSV-luc (rA2-Rluc) [5] (RSV-luc), the “viral inhibition at 24 h” value came to 57% and the “viral inhibition at 48 h” value is “not maintained”. Further, in the data set with RSV-luc (rA2-Rluc) [5], the “inhibition of RSV-luc (result in words)” value is listed as “reduced luciferase gene expression” and the “Selectivity Index (SI)” value was 7.39. Further, the “concentration at which the cells were 80% viable” value with A549 cells [6] turned out to be 300 µM.

Molecule `O=c1ccc2ccccc2o1` [Coumarin, 1,2 Benzopyrone] came in with a CC50 in data set [1] of 3560 µM. In the data set on RSV-luc (rA2-Rluc) [2], the “mean difference vs positive control” value was 19,333,333 RLU. In the data set with RSV-luc (rA2-Rluc) [3], the IC50 turned out to be 1650 µM. The “inhibition of rgRSV (result in words)” value in data set [4] was “did not”. In addition, in the data set with RSV-luc (rA2-Rluc) [5], the “inhibition of RSV-luc (result in words)” value is “did not show inhibition; also recorded: no reduction in infection” and the “Selectivity Index (SI)” value came to 2.16. Moreover, the “concentration at which the cells were 80% viable” value in the data set with A549 cells [6] worked out at 300 µM.

As for `O=c1ccc2cc(O[C@@H]3O[C@H](CO)[C@@H](O)[C@H](O)[C@H]3O)c(O)cc2o1` [Esculin, 6,7-Dihydroxycoumarin-6-glucoside], the “concentration at which the cells were 80% viable” value with A549 cells [7] (MTT, 48 h) came out at 300 µM. The molecule also came in with a CC50 in data set [1] of 1930 µM. Also, the “inhibition compared with the PC” value in the data set on RSV-luc (rA2-Rluc) [2] is recorded as “no significant inhibition”. For the same molecule, the IC50 in the data set on RSV-luc (rA2-Rluc) [3] was determined as 1590 µM. Also, the “inhibition of rgRSV (result in words)” value in data set [4] is “did not”. For the same molecule, in the data set on RSV-luc (rA2-Rluc) [5], the “inhibition of RSV-luc (result in words)” value was “did not show inhibition” and the “Selectivity Index (SI)” value is 1.21.

For `O=c1ccc2ccc(O)cc2o1` [Umbelliferone, 7-Hydroxycoumarin], the “concentration at which the cells were 80% viable” value in the data set with A549 cells [7] (MTT, 48 h) came out at 300 µM. Also, the CC50 in data set [1] was found to be 2400 µM. Besides, the “inhibition compared with the PC” value in the data set with RSV-luc (rA2-Rluc) [2] was “no significant inhibition”. For the same molecule, the IC50 in the data set on RSV-luc (rA2-Rluc) [3] was 5140 µM. For the same molecule, in data set [4], the “inhibition of rgRSV (result in words)” value is “did not”. Moreover, in the data set on RSV-luc (rA2-Rluc) [5], the “inhibition of RSV-luc (result in words)” value was “did not show inhibition” and the “Selectivity Index (SI)” value is 0.46.

`CN[C@@H]1C[C@H]2O[C@@](C)([C@@H]1OC)n1c3ccccc3c3c4c(c5c6ccccc6n2c5c31)C(=O)NC4` [Staurosporine, reference compound] had a cells unavailable in the data set with A549 cells [7] (Staurosporine 1 mM, 48 h) of 50%.

Turning to `OC[C@H]1O[C@@H]2O[C@H]3[C@H](O)[C@@H](O)[C@@H](O[C@H]4[C@H](O)[C@@H](O)[C@@H](O[C@H]5[C@H](O)[C@@H](O)[C@@H](O[C@H]6[C@H](O)[C@@H](O)[C@@H](O[C@H]7[C@H](O)[C@@H](O)[C@@H](O[C@H]8[C@H](O)[C@@H](O)[C@@H](O[C@H]1[C@H](O)[C@H]2O)O[C@@H]8CO)O[C@@H]7CO)O[C@@H]6CO)O[C@@H]5CO)O[C@@H]4CO)O[C@@H]3CO` [β-cyclodextrin], the “decrease of the available cells” value in the data set on A549 cells [6] is “about 5%”.
